{"source": "paper PMC6690024", "about": "“Trading amino acids at the aphid–Buchnera symbiotic interface” (Proceedings of the National Academy of Sciences of the …, 2019)", "molecules": {"B1": {"name": "ApNEAAT1 (ACYPI008971) (Acyrthosiphon pisum) (protein)", "chain": "MSESLSLTGIGPPSDTKDQKSKSYAVNVQQENMSLNANGSPPYDPHAHRILEHPTTNSETLIHLLKGSLGTGILAMPNAFYNSGLLVGTVGTILIGFLCTYCLHVLVRSQYLLCKKHRVPILSYPDSMKYALQDGPAFLKFGVPLSAIIVDGFLIVYQLGICCVYIMFIGTSIKQVLDIYIEPMNERYYMLMMLIPLVAINLIRNLKLLAPFSQGANIITFAGLAIVLWYIFVDLPPISSRPLIGEPRNYTLFVGTTLFALEAVGVVLALENNMKTPASFGGTTGVLNIGMTIITVMYVGMGFFGYVKYGEIVEGSVTLNLPNGDILSQAVKLIFAVAIFITYALQAYVPVEIIWNTYMKKRVQNWDKTTMEYLLRISVVLVTFLLAVAIPLLDLFISLFGALCLSVLGIGFPALIEICVLWPERNFGRFNYVLIKDIILIIIGILALVLGTYISLQDIARKL"}}, "key": {"[1]": {"target": "T1, ApNEAAT1 (ACYPI008971) (Acyrthosiphon pisum, UniProt A0A8R1W427)", "T1 construct": "cDNA in pcDNA3.1 or pCS2+, cRNA injected into Xenopus laevis oocytes; SLC36-related AAAP transporter; I161 in TM3", "T1 sequence (A0A8R1W427 1-463)": "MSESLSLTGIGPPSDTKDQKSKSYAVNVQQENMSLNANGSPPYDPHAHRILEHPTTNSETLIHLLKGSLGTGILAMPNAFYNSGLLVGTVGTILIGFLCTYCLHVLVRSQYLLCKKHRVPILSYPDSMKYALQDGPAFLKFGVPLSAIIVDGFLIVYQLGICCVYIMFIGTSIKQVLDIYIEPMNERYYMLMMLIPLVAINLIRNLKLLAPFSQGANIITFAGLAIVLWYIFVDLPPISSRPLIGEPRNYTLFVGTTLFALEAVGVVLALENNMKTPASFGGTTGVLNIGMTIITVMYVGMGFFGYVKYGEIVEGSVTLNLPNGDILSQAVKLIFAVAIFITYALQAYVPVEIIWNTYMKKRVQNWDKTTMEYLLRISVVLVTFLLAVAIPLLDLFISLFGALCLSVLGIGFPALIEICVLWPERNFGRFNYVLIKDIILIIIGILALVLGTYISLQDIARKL", "experiment": "competition with radiolabelled proline uptake in Xenopus oocytes", "format": "cell-based", "details": "pH 5.5, Na+-free, room temperature, 10 mM competitor"}, "[2]": {"target": "T2, PAT2 (rat slc36a2) (Rattus norvegicus, UniProt Q8K415)", "T2 sequence (Q8K415 whole entry)": "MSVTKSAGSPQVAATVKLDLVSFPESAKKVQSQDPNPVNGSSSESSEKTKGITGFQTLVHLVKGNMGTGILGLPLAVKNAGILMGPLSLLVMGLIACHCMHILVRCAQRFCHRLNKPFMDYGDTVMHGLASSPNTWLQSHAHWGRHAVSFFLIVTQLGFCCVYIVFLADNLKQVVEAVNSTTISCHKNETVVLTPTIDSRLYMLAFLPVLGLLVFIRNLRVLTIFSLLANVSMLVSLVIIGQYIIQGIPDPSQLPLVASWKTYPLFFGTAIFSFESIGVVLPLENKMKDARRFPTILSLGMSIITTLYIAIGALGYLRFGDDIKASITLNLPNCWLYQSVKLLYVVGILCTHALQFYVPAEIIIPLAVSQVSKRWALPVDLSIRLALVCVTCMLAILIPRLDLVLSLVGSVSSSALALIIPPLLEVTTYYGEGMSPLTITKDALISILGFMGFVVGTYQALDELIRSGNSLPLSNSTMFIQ", "experiment": "trans-stimulation of [3H]proline efflux from Xenopus oocytes", "format": "cell-based", "design": "wild type in pSPORT, cRNA injected into Xenopus laevis oocytes", "details": "10 mM extracellular alanine, Na+-free, pH 5.5, 10 min"}, "[3]": {"target": "T2, PAT2 (rat slc36a2)", "details": "0.1 to 1 mM proline, Na+-free, pH 5.5, -30 mV; H+ symport"}, "[4]": {"substrate": "O=C(O)[C@@H]1CCCN1", "experiment": "cells, lysate or membranes", "details": "pH 5.5, Na+-free, room temperature, 40 min, labelled compound"}, "[5]": {"details": "also direct uptake at 10 µM (Figure 4A)"}}, "data": [{"molecule": "C[C@H](N)C(=O)O", "note": "[Ala, alanine]", "values": [{"measurement": "% control proline uptake at 10 mM", "setting": "[1]; [5]", "value": "smaller dipolar L- and D-amino acids (including proline, alanine, serine, cysteine, and glycine)"}, {"measurement": "trans-stimulation of [3H]proline efflux from Xenopus oocytes", "setting": "[2]", "value": "In PAT2-expressing oocytes, alanine trans-stimulation of [3H]proline efflux was evident"}]}, {"molecule": "N[C@@H](CO)C(=O)O", "note": "[Ser, serine]", "values": [{"measurement": "% control proline uptake at 10 mM", "setting": "[1]; [5]", "value": "smaller dipolar L- and D-amino acids (including proline, alanine, serine, cysteine, and glycine)"}]}, {"molecule": "C[C@@H](O)[C@H](N)C(=O)O", "note": "[Thr, threonine]", "values": [{"measurement": "% control proline uptake at 10 mM", "setting": "[1]; weak", "value": "weaker interactions with amino acids of slightly larger side-chain (e.g., threonine)"}]}, {"molecule": "O=C(O)[C@H]1CCCN1", "note": "[D-proline]", "values": [{"measurement": "% control proline uptake at 10 mM", "setting": "[1]", "value": "small NEAAs (such as glycine and L- and D-proline, serine, alanine, and cysteine)"}]}, {"molecule": "O=C(O)[C@@H]1CCCN1", "note": "[Pro, proline]", "values": [{"measurement": "two-electrode voltage clamp of Xenopus oocytes, proline-induced inward current", "setting": "[3]", "value": "Proline-associated inward current in PAT2-expressing but not ApNEAAT1-expressing or uninjected (control) oocytes"}]}, {"molecule": "N[C@@H](CS)C(=O)O", "note": "[Cys, cysteine]", "values": [{"measurement": "% control proline uptake at 10 mM", "setting": "[1]; also trans-stimulates [3H]proline efflux (Figure 4D)", "value": "Cysteine is thus demonstrated to be an ApNEAAT1 substrate by its ability to trans-stimulate"}]}, {"molecule": "B1", "values": [{"measurement": "Km", "setting": "[4]", "value": "179 ± 33", "unit": "µM"}]}]}
